Consider 35 compounds from patent US20150246058A1, “COMPOSITION FOR PREVENTING HAIR LOSS AND ACCELERATING HAIR GROWTH” (RNS CO., LTD., priority 2012, published 2015).

In the test the test system is 5α-reductase. Description: 5α-reductase inhibitory efficacy: DHT produced in testosterone-stimulated dermal papilla cells (DHT ELISA). It counts as cell-based. Conditions: 50 nM testosterone, 24 hours, produced DHT relative to control. The protocol: After seeding 1 ml of dermal papilla cells (DPCs) by 5×10^5/ml into each well of a 24-well plate, then incubating the same for 24 hours, each of the reaction products prepared according to procedures described in Examples 1 to 72 was added in amounts of 50 μg/ml, 10 μg/ml and 0 μg/ml, respectively, to individual wells. After 1 hour, the wells were subjected to stimulation using 50 nM testosterone (DMSO dissolved). The supernatant was discarded 24 hours after culturing, to thus obtain DPc pellets. A content of dihydrotestosterone (DHT) (DB52021, Hamburg, Germany) was determined by means of enzyme-linked immune-sorbent assay. DPCs cell pellets were seeded in an amount of 100 μL into each of Dihydrotestosterone (DHT) ELISA microtiter strips coated with rabbit anti-DHT antibody, 25 μL of DHT antiserum was seeded in every well, and subjected to a reaction at 2 to 8° C. for 15 to 20 hours, followed by washing the same three times. Thereafter, 100 μL of DHT-HRP enzyme conjugate was seeded in every well and reacted on a shaker at room temperature for 30 minutes, followed by washing the same three times. Furthermore, 100 μL of substrate was seeded in every well and reacted on a shaker at room temperature for 20 to 30 minutes. Then, the product was treated using 100 μL stop solution, and subjected to measurement of absorbance at 450 nm to express an amount of produced DHT by the absorbance (three times repeated). An amount of produced DHT relative to a control was calculated in terms of an inhibitory rate (%), and results thereof are shown in Table 3 below.
(In general: An ELISA detects its analyte on a solid surface through an enzyme-linked reagent.)

For the compound `C/C=C(\CC[C@@H](C)[C@H]1CC[C@H]2[C@@H]3CC=C4C[C@@H](O)CC[C@]4(C)[C@H]3CC[C@]12C)C(C)C` [Compound in Example 48, fucosterol], the “5α-reductase inhibitory rate (%)” value amounted to 12% (sample concentration 10 μg/ml) and 19% (sample concentration 50 μg/ml).
The corresponding values for “brassicasterol stearate [Compound in Example 47]” are 24% and 39%.
As for `CC1(C)CC[C@]2(C(=O)O)CC[C@]3(C)C(=CC[C@@H]4[C@@]5(C)CC[C@H](O)C(C)(C)[C@@H]5CC[C@]43C)[C@@H]2C1` [Compound in Example 22, oleanolic acid], the “5α-reductase inhibitory rate (%)” value runs as follows: (sample concentration 10 μg/ml) 7%; (sample concentration 50 μg/ml) 16%.
Turning to `CC(C)[C@H](C)CC[C@@H](C)[C@H]1CC[C@H]2[C@@H]3CC=C4C[C@@H](O)CC[C@]4(C)[C@H]3CC[C@]12C` [Compound in Example 44, Campesterol], the “5α-reductase inhibitory rate (%)” value (sample concentration 10 μg/ml) was found to be 11% and the “5α-reductase inhibitory rate (%)” value (sample concentration 50 μg/ml) was 21%.
As to “ursolic acid stearate [Compound in Example 21]”, the “5α-reductase inhibitory rate (%)” value was found to be 35% (sample concentration 10 μg/ml) and 51% (sample concentration 50 μg/ml).
The corresponding values for `CCCCCCCCOC1CCC2(C)C(=CCC3C2CCC2(C)C(C(C)C=CC(C)C(C)C)CCC32)C1` (stereo not shown) [Compound in Example 71, O-octyl-brassicasterol] are 29% and 38%.
The corresponding values for `CCCCCCCC(=O)OC1CCC2(C)C(CCC3(C)C2CC=C2C4C(C)C(C)CCC4(C)CCC23C)C1(C)C` (stereo not drawn) [Compound in Example 12, α-amyrin octanoate] are 35% and 49%.
With “α-amyrin stearate [Compound in Example 13]”, the “5α-reductase inhibitory rate (%)” value is, setting by setting: (sample concentration 10 μg/ml) 45%; (sample concentration 50 μg/ml) 57%.
For “O-octadecyl-oleanolic acid [Compound in Example 62]”, in that order: 29% and 51%.
For `CC[C@H](CC[C@@H](C)[C@H]1CC[C@H]2[C@@H]3CC=C4C[C@@H](OC(C)=O)CC[C@]4(C)[C@H]3CC[C@]12C)C(C)C` [Compound in Example 15, β-sitosterol acetate], in that order: 21% and 29%.
Regarding `COC1CCC2(C)C(CCC3(C)C2CC=C2C4CC(C)(C)CCC4(C)CCC23C)C1(C)C` (stereo not drawn) [Compound in Example 50, O-methyl-β-amyrin], the “5α-reductase inhibitory rate (%)” value runs as follows: (sample concentration 10 μg/ml) 16%; (sample concentration 50 μg/ml) 31%.
The corresponding values for `CCCCCCCCOC1CCC2(C)C(=CCC3C2CCC2(C)C(C(C)CCC=C(C)C)CCC32)C1` (stereo not shown) [Compound in Example 67, O-octyl-desmosterol] are 24% and 41%.
Regarding “O-octyl-β-boswellic acid [Compound in Example 64]”, the “5α-reductase inhibitory rate (%)” value is 35% (sample concentration 10 μg/ml) and 51% (sample concentration 50 μg/ml).
Regarding `CCCCCCCC(=O)OC1CCC2(C)C(CCC3(C)C2CC=C2C4CC(C)(C)CCC4(C(=O)O)CCC23C)C1(C)C` (stereo not shown) [Compound in Example 24, oleanolic acid octanoate], the “5α-reductase inhibitory rate (%)” value by setting is: (sample concentration 10 μg/ml) 21%; (sample concentration 50 μg/ml) 39%.
For `CC(C)=CC(=O)OC1CCC2(C)C(CCC3(C)C2CC=C2C4CC(C)(C)CCC4(C)CCC23C)C1(C)C` (stereo not drawn) [Compound in Example 3, β-amyrin 3-methyl-2-butenate], in that order: 28% and 41%.
For the compound `C=C(C)[C@@H]1CC[C@]2(C(=O)O)CC[C@]3(C)[C@H](CC[C@@H]4[C@@]5(C)CC[C@H](O)C(C)(C)[C@@H]5CC[C@]43C)[C@@H]12` [Compound in Example 32, betulinic acid], the “5α-reductase inhibitory rate (%)” value (sample concentration 10 μg/ml) is reported as 9% and the “5α-reductase inhibitory rate (%)” value (sample concentration 50 μg/ml) was determined as 17%.
As for `CCCCCCCC(=O)OC1CCC2(C)C(CCC3(C)C2CC=C2C4CC(C)(C)CCC4(C)CCC23C)C1(C)C` (stereo not drawn) [Compound in Example 5, β-amyrin octanoate], the “5α-reductase inhibitory rate (%)” value stood at 41% (sample concentration 10 μg/ml) and 57% (sample concentration 50 μg/ml).
As to `CCCCCCCCOC1CCC2(C)C(CCC3(C)C2CC=C2C4CC(C)(C)CCC4(C)CCC23C)C1(C)C(=O)O` (stereo not drawn) [Compound in Example 63, O-octyl-α-boswellic acid], the “5α-reductase inhibitory rate (%)” value is, setting by setting: (sample concentration 10 μg/ml) 21%; (sample concentration 50 μg/ml) 34%.
On to `CCCCCCCCCCCCCCCCCC(=O)O[C@H]1CC[C@@]2(C)C(=CC[C@H]3[C@@H]4CC[C@H]([C@H](C)CCCC(C)C)[C@@]4(C)CC[C@@H]32)C1` [Compound in Example 41, cholesterol stearate], for which the “5α-reductase inhibitory rate (%)” value (sample concentration 10 μg/ml) is on record as 26% and the “5α-reductase inhibitory rate (%)” value (sample concentration 50 μg/ml) turned out to be 39%.
As for `CCCCCCCCCCCCCCCCCC(=O)O[C@H]1CC[C@@]2(C)C(=CC[C@H]3[C@@H]4CC[C@H]([C@H](C)CC[C@@H](CC)C(C)C)[C@@]4(C)CC[C@@H]32)C1` [Compound in Example 17, β-sitosterol stearate], the “5α-reductase inhibitory rate (%)” value (sample concentration 10 μg/ml) was found to be 31% and the “5α-reductase inhibitory rate (%)” value (sample concentration 50 μg/ml) came out at 42%.
As for “dihydroandrosterone stearate [Compound in Example 37]”, the “5α-reductase inhibitory rate (%)” value was 24% (sample concentration 10 μg/ml) and 38% (sample concentration 50 μg/ml).
For `CCCCCCCCCCCCCCCCCC(=O)O[C@H]1CC[C@@]2(C)C(=CC[C@H]3[C@@H]4CC[C@H]([C@H](C)CC[C@@H](C)C(C)C)[C@@]4(C)CC[C@@H]32)C1` [Compound in Example 45, Campesterol stearate], in that order: 26% and 43%.
For `C[C@H]1[C@H](C)CC[C@]2(C)CC[C@]3(C)C(=CC[C@@H]4[C@@]5(C)CC[C@H](O)C(C)(C)[C@@H]5CC[C@]43C)[C@H]12` [Compound in Example 10, α-amyrin], in that order: 13% and 29%.
For “ursolic acid acetate [Compound in Example 19]”, in that order: 22% and 31%.
On to “betulinic acid stearate [Compound in Example 33]”, for which the “5α-reductase inhibitory rate (%)” value came out at 31% (sample concentration 10 μg/ml) and 51% (sample concentration 50 μg/ml).
`CCCCCCCCCCCCCCCCCCOC1CCC2(C)C(CCC3(C)C2CC=C2C4C(C)C(C)CCC4(C(=O)O)CCC23C)C1(C)C` (stereo not shown) [Compound in Example 60, O-octadecyl-ursolic acid]: the “5α-reductase inhibitory rate (%)” value by setting is: (sample concentration 10 μg/ml) 35%; (sample concentration 50 μg/ml) 49%.
In the case of `CCCCCCCCCCCCCCCCCCO[C@H]1CC[C@@]2(C)C(=CC[C@H]3[C@@H]4CC[C@H]([C@H](C)CC[C@@H](CC)C(C)C)[C@@]4(C)CC[C@@H]32)C1` [Compound in Example 58, O-octadecyl-β-sitosterol], the “5α-reductase inhibitory rate (%)” value is, setting by setting: (sample concentration 10 μg/ml) 31%; (sample concentration 50 μg/ml) 46%.
Turning to `CC(C)[C@@H](C)/C=C/[C@@H](C)[C@H]1CC[C@H]2[C@@H]3CC=C4C[C@@H](O)CC[C@]4(C)[C@H]3CC[C@]12C` [Compound in Example 46, brassicasterol], the “5α-reductase inhibitory rate (%)” value (sample concentration 10 μg/ml) was determined as 8% and the “5α-reductase inhibitory rate (%)” value (sample concentration 50 μg/ml) is reported as 19%.
Consider `C=C(C)C1CCC2(C(=O)O)CCC3(C)C(CCC4C5(C)CCC(OCCCCCCCC)C(C)(C)C5CCC43C)C12` (stereo not shown) [Compound in Example 65, O-octyl-betulinic acid], for which the “5α-reductase inhibitory rate (%)” value worked out at 19% (sample concentration 10 μg/ml) and 31% (sample concentration 50 μg/ml).
As for “β-amyrin behenate [Compound in Example 9]”, the “5α-reductase inhibitory rate (%)” value (sample concentration 10 μg/ml) turned out to be 38% and the “5α-reductase inhibitory rate (%)” value (sample concentration 50 μg/ml) is 59%.
As for `CCCCCCCC(=O)OC1CCC2(C)C(CCC3(C)C2CC=C2C4C(C)C(C)CCC4(C(=O)O)CCC23C)C1(C)C` (stereo not shown) [Compound in Example 20, ursolic acid octanoate], the “5α-reductase inhibitory rate (%)” value is, setting by setting: (sample concentration 10 μg/ml) 31%; (sample concentration 50 μg/ml) 46%.
For “O-octadecyl-α-amyrin [Compound in Example 56]”, in that order: 38% and 49%.
The corresponding values for “O-octadecyl-β-amyrin [Compound in Example 54]” are 35% and 48%.
As for `CC(=O)OC1CCC2(C)C(CCC3(C)C2CC=C2C4C(C)C(C)CCC4(C)CCC23C)C1(C)C(=O)O` (stereo not drawn) [Compound in Example 30, β-boswellic acid acetate], the “5α-reductase inhibitory rate (%)” value is, setting by setting: (sample concentration 10 μg/ml) 14%; (sample concentration 50 μg/ml) 29%.
Turning to `C[C@]12CC[C@H](O)CC1=CC[C@@H]1[C@@H]2CC[C@]2(C)C(=O)CC[C@@H]12` [Compound in Example 36, dihydroandrosterone], the “5α-reductase inhibitory rate (%)” value is listed as 9% (sample concentration 10 μg/ml) and 28% (sample concentration 50 μg/ml).
